Reference: patent publication US20060074129A1, “Method for obtaining ozonized oils and vegetable fats and use of said products for pharmaceutical and cosmetic purposes” (priority 2002, published 2006)

What was measured:
Candida albicans = assay: Clinical study in vulvovaginal candidiasis; type: in vivo; settings: for healing: final vaginal exudate, six days after the last ovule; for time at which symptoms and signs disappeared in a higher percent: in vivo
Method: Ninety women, 17 to 51 years old, with diagnosis of vulvovaginal candidiasis were studied. Patients were allocated at random in three groups: 30 were treated with ovules containing 10% ozonized theobroma oil, 30 were treated with Nistatine and 30 with Clotrimazole. To all patients, a vaginal exudate was performed at the beginning and at the end of the treatment, six days after the application of the last ovule. Also, an interrogation and a physical test were performed to them. The clinical symptoms of those patients were pruritus, burning and leucorrhea with higher prevalence. […] Taking into account the final exudate, a healing of 97% was obtained for the patients treated with ozonized theobroma oil ovules, 80% for the group treated with Clotrimazole and 50% for the patients treated with Nistatine.

[1] = test system: moderate simple periodontitis; assay: Random, controlled, single-blind phase III clinical trial in moderate simple periodontitis; type: in vivo, human
Method: In this study, we used ozonized sunflower oil in order to evaluate their effect on the treatment of moderate simple periodontitis and for preventing its recidivation. A random, controlled and single-blind phase III clinical trial was performed in 84 patients, older than 35 years, from both sexes. Ozonized sunflower oil was topically applied to 42 patients on the operated area and on the 7th, 14th and 21st days after operation on the adjacent periodontal tissues. The control group was formed by 42 patients that received the conventional treatment with chlorhexidine (aqueous solution 0.2%). An analytic index of hygiene, clinical and radiographical tests and microbiological controls was applied to the patients, at the beginning, on the 21st , 90th and 180th days and with intervals of 1 month until 9 months after operation. The effectiveness of the treatment after 180 days was considered as: good (satisfactory clinical and microbiological assessments) in 98% of the patients of the group treated with ozonized sunflower oil and in 78% of the control group; fairly good (some of the assessments were not satisfactory) for 2 and 17%, respectively, and in the category of bad (both assessments were not satisfactory) only 5% appears in the control group. Recidivation was more frequent in the control group (15%) than in the group treated with ozonized sunflower oil (5%). In general, the best clinical results (best evolution and healing during the study) and microbiological results were obtained in the group treated with ozonized sunflower oil, and also a lower percent of recidivation was found in that group.

blepharitis = assay: Clinical study in blepharitis with acute bacterial infection; type: in vivo, human; settings: topical on eyelid border, 7 days
Method: The sample was constituted by 40 patients suffering from blepharitis, with acute bacterial infection. Twenty patients were treated with topical ozonized sunflower oil, three times a day, by rubbing the border of the eyelid with an applicator soaked with ozonized sunflower oil, during 7 days. The 20 other patients were treated in the same way with gentamycin ointment (0.3%), 4 times a day for 7 days. Healing of 95 and 88% was obtained with ozonized sunflower oil and gentamycin, respectively, with significant differences between both groups.

[2] = test system: acute ulcer-necrotizing gingivitis; assay: Random phase III clinical assay in acute ulcer-necrotizing gingivitis; type: in vivo, human; settings: three times a day for 7 days
Method: A random phase III clinical assay was performed in a group of 48 patients suffering from acute ulcer-necrotizing gingivitis. From those patients, 24 formed the group with ozonized sunflower oil, by topical applications on the lesions, three times a day, for 7 days. The control group (24 patients) was treated with local applications of aqueous solution of sodium perborate, as rinsings, with similar periodicity to that of the group treated with ozonized sunflower oil. The tests were performed 3 or 7 days after the beginning of the treatments.

Compound: Clc1ccccc1C(c1ccccc1)(c1ccccc1)n1ccnc1 [Clotrimazole]
- healing (Candida albicans): 80%
- time at which symptoms and signs disappeared in a higher percent (Candida albicans): between the first and the fourth days of treatment

Compound: [H]/N=C(\N/C(=N/[H])NCCCCCCNC(=N)NC(=N)Nc1ccc(Cl)cc1)Nc1ccc(Cl)cc1 [chlorhexidine]
- effectiveness of the treatment considered bad ([1]; after 180 days, both assessments not satisfactory): 5%
- effectiveness of the treatment considered good ([1]; after 180 days, satisfactory clinical and microbiological assessments): 78%
- effectiveness of the treatment considered fairly good ([1]; after 180 days, some of the assessments not satisfactory): 17%
- recidivation ([1]; human, in vivo): 15%

Compound: Nistatine
- healing (Candida albicans): 50%
- time at which symptoms and signs disappeared in a higher percent (Candida albicans): between the ninth and twelfth days

Compound: gentamycin
- healing (blepharitis): 88%

Compound: sodium perborate
- patients healed [2]: 29.2%
